Data published in US9403846B2, “Carbocyclic- and heterocyclic-substituted hexahydropyrano[3,4-d][1,3]thiazin-2-amine compounds” (Pfizer Inc., priority 2012, dated 2016).
Structures can show the parent of a compound that is named as a salt.

What was measured:
BACE1 enzyme = BACE1 enzyme (Homo sapiens (Human), UniProt P56817); experiment: BACE1 Cell-Free Assay (fluorescence polarization);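 on all read-outs here: Affinity-purified soluble BACE1 from transfected CHO-K1 cells cleaving a biotinylated, Oregon Green-labelled synthetic APP peptide, 3 h at 37 °C, cleavage followed by fluorescence polarization change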; assay type: biochemical; conditions: for IC50: geometric mean of 2-3 determinations (Ex. 2: ≧6 determinations); for biological activity (in words, see Table 3): statement used to assign absolute stereochemistry, refers to Table 3
[1] = system: sAPPβ levels in H4 human neuroglioma cells over-expressing the wild-type human APP695; experiment: Whole Cell Assay (In Vitro sAPPb Assay); assay type: cell-based; conditions: 18 hours, geometric mean of 2-3 determinations (Ex. 2: ≧6 determinations)
BACE2 enzyme = BACE2 enzyme (Homo sapiens (Human), UniProt Q9Y5Z0); experiment: BACE2 Assay (cell-free, fluorescence polarization); assay type: biochemical; conditions: single determination
Protocol: This assay measures the inhibition of the BACE2 enzyme as it cleaves a non-native peptide. A synthetic substrate that can be cleaved by BACE2 having N-terminal biotin and made fluorescent by the covalent attachment of Oregon Green at the Cys residue is used to assay BACE2 activity in the presence or absence of the inhibitory compounds. The substrate is Biotin-[…]-C(Oregon green)-KK-OH. The BACE2 enzyme is available from Enzo Life Sciences (Cat # BML-SE550). Compounds are incubated in a ½ log dose response curve from a top concentration of 100 μM with BACE2 enzyme and the biotinylated fluorescent peptide in 384-well black plates (Thermo Scientific #4318). BACE2 is at a final concentration of 2.5 nM with a final concentration of peptide substrate of 150 nM in a reaction volume of 30 μL assay buffer (100 mM sodium acetate, pH 4.5 (brought to pH with acetic acid), and 0.001% Tween-20). Plates are covered and incubated for 3 hours at 37° C. The reaction is stopped with the addition of 30 μL of 1.5 μM Streptavidin (Pierce, #21125). After a 10 minute incubation at room temperature, plates are read on a PerkinElmer EnVision for fluorescence polarization (Ex485 nm/Em530 nm). The activity of the beta-secretase enzyme is detected by changes in the fluorescence polarization that occur when the substrate is cleaved by the enzyme.

BACE2 enzyme, sequence (Q9Y5Z0 63-518): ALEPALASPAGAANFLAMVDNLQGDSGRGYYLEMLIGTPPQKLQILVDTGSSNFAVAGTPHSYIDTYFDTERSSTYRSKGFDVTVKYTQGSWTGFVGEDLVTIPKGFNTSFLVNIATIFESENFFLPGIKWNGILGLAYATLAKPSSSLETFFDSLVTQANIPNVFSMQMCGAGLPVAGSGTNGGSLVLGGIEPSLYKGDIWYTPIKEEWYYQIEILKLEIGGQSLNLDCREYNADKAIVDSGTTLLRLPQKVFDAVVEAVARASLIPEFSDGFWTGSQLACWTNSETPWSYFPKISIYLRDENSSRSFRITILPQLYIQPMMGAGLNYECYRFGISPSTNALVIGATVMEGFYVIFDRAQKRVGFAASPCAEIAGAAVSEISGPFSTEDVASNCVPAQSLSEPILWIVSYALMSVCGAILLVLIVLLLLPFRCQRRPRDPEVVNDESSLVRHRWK
BACE1 enzyme, sequence (P56817 46-457): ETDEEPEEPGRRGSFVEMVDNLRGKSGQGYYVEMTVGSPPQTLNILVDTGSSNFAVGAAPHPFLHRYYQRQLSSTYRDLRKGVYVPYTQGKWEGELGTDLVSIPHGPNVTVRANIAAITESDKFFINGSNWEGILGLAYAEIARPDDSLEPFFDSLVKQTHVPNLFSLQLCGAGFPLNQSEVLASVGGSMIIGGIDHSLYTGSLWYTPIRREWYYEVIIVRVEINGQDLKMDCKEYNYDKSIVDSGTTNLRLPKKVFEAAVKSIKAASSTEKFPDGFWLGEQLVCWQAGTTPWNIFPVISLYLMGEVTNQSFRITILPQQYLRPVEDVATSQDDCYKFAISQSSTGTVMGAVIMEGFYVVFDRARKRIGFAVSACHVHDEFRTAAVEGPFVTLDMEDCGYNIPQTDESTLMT

Compound NC1=N[C@]2(c3ccccc3F)CO[C@H](C3CC3)C[C@@H]2CS1 [Example 17, (4aS,6S,8aR)-6-Cyclopropyl-8a-(2-fluorophenyl)-4,4a,5,6,8,8a-hexahydropyrano[3,4-d][1,3]thiazin-2-amine] has an IC50 (BACE1 enzyme) of 25700 nM and an IC50 ([1]; Homo sapiens) of 1560 nM.
COC[C@H]1SC(N)=N[C@@]2(c3ccc(F)cc3F)CO[C@@H](C3CC3)C[C@@H]12 (racemic) [Example 5, rel-(4S,4aR,6R,8aS)-6-Cyclopropyl-8a-(2,4-difluorophenyl)-4-(methoxymethyl)-4,4a,5,6,8,8a-hexahydropyrano[3,4-d][1,3]thiazin-2-amine, hydrochloride salt] gave an IC50 (BACE1 enzyme) of 1410 nM and an IC50 ([1]; Homo sapiens) of 116 nM.
Work on NC1=N[C@@]2(c3ccccc3F)CO[C@@H](C3CC3)C[C@H]2CS1 [Example 13, (4aR,6R,8aS)-6-Cyclopropyl-8a-(2-fluorophenyl)-4,4a,5,6,8,8a-hexahydropyrano[3,4-d][1,3]thiazin-2-amine] yielded an IC50 (BACE1 enzyme) of 422 nM and an IC50 ([1]; Homo sapiens) of 40 nM.
In the case of C[C@H]1SC(N)=N[C@@]2(c3ccc(F)cc3F)CO[C@@H](C3CC3)C[C@@H]12 [Example 3, (4R,4aR,6R,8aS)-6-Cyclopropyl-8a-(2,4-difluorophenyl)-4-methyl-4,4a,5,6,8,8a-hexahydropyrano[3,4-d][1,3]thiazin-2-amine, trifluoroacetate salt], the IC50 (BACE1 enzyme) is reported as 337 nM, the IC50 ([1]; Homo sapiens) is reported as 38.9 nM and the IC50 (BACE2 enzyme) is reported as 2490 nM.
NC1=N[C@@]2(c3ccc(F)cc3F)CO[C@@H](C3CCCO3)C[C@H]2CS1 (stereo partly drawn) [Example 1, (4aR,6R,8aS)-8a-(2,4-Difluorophenyl)-6-(tetrahydrofuran-2-yl)-4,4a,5,6,8,8a-hexahydropyrano[3,4-d][1,3]thiazin-2-amine, trifluoroacetate salt] showed an IC50 (BACE1 enzyme) of 447 nM, an IC50 ([1]; Homo sapiens) of 73.8 nM and an IC50 (BACE2 enzyme) of 1290 nM.
NC1=N[C@@]2(c3ccc(F)cc3F)CO[C@@H](CC3CC3)C[C@H]2CS1 [Example 8, (4aR,6S,8aS)-6-(Cyclopropylmethyl)-8a-(2,4-difluorophenyl)-4,4a,5,6,8,8a-hexahydropyrano[3,4-d][1,3]thiazin-2-amine] was tested, and the IC50 (BACE1 enzyme) was 235 nM and the IC50 ([1]; Homo sapiens) was 61.2 nM.
In the case of NC1=N[C@@]2(c3ccccc3)CO[C@@H](C3CC3)C[C@H]2CS1 [Example 14, (4aR,6R,8aS)-6-Cyclopropyl-8a-phenyl-4,4a,5,6,8,8a-hexahydropyrano[3,4-d][1,3]thiazin-2-amine], the IC50 (BACE1 enzyme) is reported as 1280 nM and the IC50 ([1]; Homo sapiens) is reported as 142 nM.
For C[C@@H]1C[C@H]1[C@H]1C[C@H]2CSC(N)=N[C@@]2(c2ccc(F)cc2F)CO1 [Example 20, (4aR,6R,8aS)-8a-(2,4-Difluorophenyl)-6-[(1R,2R)-2-methylcyclopropyl]-4,4a,5,6,8,8a-hexahydropyrano[3,4-d][1,3]thiazin-2-amine], the IC50 (BACE1 enzyme) was 116 nM and the IC50 ([1]; Homo sapiens) was 16.2 nM.
For NC1=N[C@@]2(c3ccc(F)cc3F)CO[C@@H](C3CC3)C[C@H]2[C@@H](CF)S1 [Example 6, (4S,4aR,6R,8aS)-6-Cyclopropyl-8a-(2,4-difluorophenyl)-4-(fluoromethyl)-4,4a,5,6,8,8a-hexahydropyrano[3,4-d][1,3]thiazin-2-amine, hydrochloride salt], the IC50 (BACE1 enzyme) was 346 nM and the IC50 ([1]; Homo sapiens) was 39.1 nM.
Cc1ccc([C@]23CO[C@@H](C4CC4)C[C@H]2CSC(N)=N3)c(F)c1 [Example 15, (4aR,6R,8aS)-6-Cyclopropyl-8a-(2-fluoro-4-methylphenyl)-4,4a,5,6,8,8a-hexahydropyrano[3,4-d][1,3]thiazin-2-amine] was tested, and the IC50 (BACE1 enzyme) was 715 nM and the IC50 ([1]; Homo sapiens) was 72.1 nM.
Work on NC1=N[C@@]2(c3c(F)cc(F)cc3F)CO[C@@H](C3CC3)C[C@H]2CS1 [Example 9, (4aR,6R,8aS)-6-Cyclopropyl-8a-(2,4,6-trifluorophenyl)-4,4a,5,6,8,8a-hexahydropyrano[3,4-d][1,3]thiazin-2-amine] yielded an IC50 (BACE1 enzyme) of 1050 nM and an IC50 ([1]; Homo sapiens) of 57.2 nM.
In the case of NC1=N[C@@]2(c3cc(F)ccc3F)CO[C@@H](C3CC3)C[C@H]2CS1 [Example 11, (4aR,6R,8aS)-6-Cyclopropyl-8a-(2,5-difluorophenyl)-4,4a,5,6,8,8a-hexahydropyrano[3,4-d][1,3]thiazin-2-amine], the IC50 (BACE1 enzyme) is reported as 1420 nM and the IC50 ([1]; Homo sapiens) is reported as 85.1 nM.
CC1([C@@H]2C[C@@H]3CSC(N)=N[C@]3(c3ccc(F)cc3F)CO2)CC1 [Example C61, (4aS,6S,8aR)-8a-(2,4-difluorophenyl)-6-(1-methylcyclopropyl)-4,4a,5,6,8,8a-hexahydropyrano[3,4-d][1,3]thiazin-2-amine] was tested, and the IC50 (BACE1 enzyme) was 37000 nM, the “biological activity (in words, see Table 3)” value (“biological activity” below) (BACE1 enzyme) was “essentially inactive” and the IC50 ([1]; Homo sapiens) was 2890 nM.
For NC1=N[C@@]2(c3c(F)cccc3F)CO[C@@H](C3CC3)C[C@H]2CS1 [Example 12, (4aR,6R,8aS)-6-Cyclopropyl-8a-(2,6-difluorophenyl)-4,4a,5,6,8,8a-hexahydropyrano[3,4-d][1,3]thiazin-2-amine], the IC50 (BACE1 enzyme) was 395 nM and the IC50 ([1]; Homo sapiens) was 34.6 nM.
With NC1=N[C@]2(c3ccc(F)cc3)CO[C@H](C3CC3)C[C@@H]2CS1 [Example 18, (4aS,6S,8aR)-6-Cyclopropyl-8a-(4-fluorophenyl)-4,4a,5,6,8,8a-hexahydropyrano[3,4-d][1,3]thiazin-2-amine] the IC50 (BACE1 enzyme) was 15600 nM and the IC50 ([1]; Homo sapiens) was 2220 nM.
Cl.NC1=N[C@]2(c3ccc(F)cc3F)CO[C@H](C3CC3)C[C@@H]2[C@H](CF)S1 [Example C48, (4R,4aS,6S,8aR)-6-cyclopropyl-8a-(2,4-difluorophenyl)-4-(fluoromethyl)-4,4a,5,6,8,8a-hexahydropyrano[3,4-d][1,3]thiazin-2-amine, hydrochloride salt] was tested, and the IC50 (BACE1 enzyme) was greater than 100000 nM, the “biological activity” value (BACE1 enzyme) was “inactive” and the IC50 ([1]; Homo sapiens) was greater than 30000 nM.
For NC1=N[C@@]2(c3ccc(F)cc3)CO[C@@H](C3CC3)C[C@H]2CS1 [Example 10, (4aR,6R,8aS)-6-Cyclopropyl-8a-(4-fluorophenyl)-4,4a,5,6,8,8a-hexahydropyrano[3,4-d][1,3]thiazin-2-amine], the IC50 (BACE1 enzyme) was 572 nM and the IC50 ([1]; Homo sapiens) was 89.7 nM.
For NC1=N[C@@]2(c3ccc(F)cc3F)CO[C@@H](C3CC3)C[C@H]2CS1 [Example 2, (4aR,6R,8aS)-6-Cyclopropyl-8a-(2,4-difluorophenyl)-4,4a,5,6,8,8a-hexahydropyrano[3,4-d][1,3]thiazin-2-amine], the IC50 ([1]; Homo sapiens) was 24.2 nM and the IC50 (BACE2 enzyme) was 2260 nM.
With Cc1ccc([C@]23CO[C@@H](C4CC4)C[C@H]2CSC(N)=N3)cc1F [Example 16, (4aR,6R,8aS)-6-Cyclopropyl-8a-(3-fluoro-4-methylphenyl)-4,4a,5,6,8,8a-hexahydropyrano[3,4-d][1,3]thiazin-2-amine] the IC50 (BACE1 enzyme) was 897 nM and the IC50 ([1]; Homo sapiens) was 92.3 nM.
Compound NC1=N[C@@]2(c3ccc(F)cc3F)CO[C@@H](C3CCO3)C[C@H]2CS1 (stereo partly drawn) [Example 4, (4aR,6R,8aS)-8a-(2,4-Difluorophenyl)-6-(oxetan-2-yl)-4,4a,5,6,8,8a-hexahydropyrano[3,4-d][1,3]thiazin-2-amine] has an IC50 (BACE1 enzyme) of 1310 nM and an IC50 ([1]; Homo sapiens) of 137 nM.
CC1(C)CCC([C@H]2C[C@H]3CSC(N)=N[C@@]3(c3ccc(F)cc3F)CO2)O1 (stereo partly drawn) [Example 19, (4aR,6R,8aS)-8a-(2,4-Difluorophenyl)-6-(5,5-dimethyltetrahydrofuran-2-yl)-4,4a,5,6,8,8a-hexahydropyrano[3,4-d][1,3]thiazin-2-amine] showed an IC50 (BACE1 enzyme) of 184 nM and an IC50 ([1]; Homo sapiens) of 17.9 nM.
NC1=N[C@]2(c3ccc(F)cc3F)CO[C@H](CC3CC3)C[C@@H]2CS1 [Example C74, (4aS,6R,8aR)-6-(cyclopropylmethyl)-8a-(2,4-difluorophenyl)-4,4a,5,6,8,8a-hexahydropyrano[3,4-d][1,3]thiazin-2-amine] was tested, and the IC50 (BACE1 enzyme) was greater than 86000 nM, the “biological activity” value (BACE1 enzyme) was “essentially inactive” and the IC50 ([1]; Homo sapiens) was 7400 nM.
With CC1([C@H]2C[C@H]3CSC(N)=N[C@@]3(c3ccc(F)cc3F)CO2)CC1 [Example 7, (4aR,6R,8aS)-8a-(2,4-Difluorophenyl)-6-(1-methylcyclopropyl)-4,4a,5,6,8,8a-hexahydropyrano[3,4-d][1,3]thiazin-2-amine] the IC50 (BACE1 enzyme) was 484 nM and the IC50 ([1]; Homo sapiens) was 142 nM.
NC1=N[C@@]2(c3ccc(F)cc3F)CO[C@@H]([C@@H]3CCCO3)C[C@H]2CS1 [Example 21, (4aR,6R,8aS)-8a-(2,4-Difluorophenyl)-6-[(2S)-tetrahydrofuran-2-yl]-4,4a,5,6,8,8a-hexahydropyrano[3,4-d][1,3]thiazin-2-amine] showed an IC50 (BACE1 enzyme) of 302 nM and an IC50 ([1]; Homo sapiens) of 39.7 nM.
With NC1=N[C@]2(c3ccc(F)cc3F)CO[C@H](C3CC3)C[C@@H]2CS1 [Example C23, (4aS,6S,8aR)-6-cyclopropyl-8a-(2,4-difluorophenyl)-4,4a,5,6,8,8a-hexahydropyrano[3,4-d][1,3]thiazin-2-amine] the “biological activity” value (BACE1 enzyme) was “essentially inactive” and the IC50 [1] was 17300 nM.
